In patent US8952024B2, “Herbicidal pyrimidone derivatives” (E I du Pont de Nemours and Company, priority 2009, dated 2015):

Key:
Experiment in all cases: Test B pre-/postemergence plant response
Type in all cases: in vivo
[1] = test system: Italian ryegrass (Lolium multiflorum)
Procedure, shortened: (§1)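 Each species received compound formulated in non-phytotoxic solvent with surfactant, either at planting into a loam and sand blend or as a foliar spray once plants reached 2 to 18 cm in peat-based medium. Plants stayed in the greenhouse 13 to 15 days before visual evaluation against controls, scored 0 (no effect) to 100 (complete control).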

[2] = test system: ragweed (common ragweed, Ambrosia elatior)
Procedure, shortened: as §1

[3] = test system: Surinam grass (Brachiaria decumbens)
Procedure, shortened: as §1

[4] = test system: green foxtail (Setaria viridis)
Procedure, shortened: as §1

[5] = test system: yellow nutsedge (Cyperus esculentus)
Procedure, shortened: as §1

[6] = test system: large crabgrass (Digitaria sanguinalis)
Procedure, shortened: as §1

[7] = test system: blackgrass (Alopecurus myosuroides)
Procedure, shortened: as §1

[8] = test system: velvetleaf (Abutilon theophrasti)
Procedure, shortened: as §1

[9] = test system: goosegrass (Eleusine indica)
Procedure, shortened: as §1

[10] = test system: woolly cupgrass (Eriochloa villosa)
Procedure, shortened: as §1

[11] = test system: giant foxtail (Setaria faberii)
Procedure, shortened: as §1

[12] = test system: lambsquarters (Chenopodium album)
Procedure, shortened: as §1

[13] = test system: downy bromegrass (Bromus tectorum)
Procedure, shortened: as §1

[14] = test system: johnsongrass (Sorghum halepense)
Procedure, shortened: as §1

[15] = test system: kochia (Kochia scoparia)
Procedure, shortened: as §1

[16] = test system: corn (Zea mays)
Procedure, shortened: as §1

[17] = test system: bermudagrass (Cynodon dactylon)
Procedure, shortened: as §1

[18] = 31 g ai/ha, postemergence, scale 0 to 100, 0 is no effect, 100 is complete control
[19] = 250 g ai/ha, Preemergence, 0 to 100 scale
[20] = Postemergence, 62 g ai/ha, scale 0 (no effect) to 100 (complete control), 13 to 15 days
[21] = Postemergence, 125 g ai/ha, visual rating after 13 to 15 days, scale 0 (no effect) to 100 (complete control)
[22] = Postemergence, 250 g ai/ha, scale 0 to 100 (0 no effect, 100 complete control)
[23] = Preemergence, 31 g ai/ha, scale 0 to 100 (0 no effect, 100 complete control)
[24] = Preemergence, 125 g ai/ha, 0 to 100 scale
[25] = Preemergence, 62 g ai/ha, scale 0 to 100, 0 no effect, 100 complete control

CCCn1c(-c2ccccc2)ncc(C(=O)C2=C(O)CCCC2=O)c1=O [Compound 50]
Plant response rating, Ryegrass, Italian [1, 18]: 0 | Plant response rating, Ryegrass, Italian [1, 19]: 0 | Plant response rating, Ryegrass, Italian [1, 20]: 0 | Plant response rating, Ryegrass, Italian [1, 21]: 0 | Plant response rating, Ryegrass, Italian [1, 22]: 0 | Plant response rating, Ryegrass, Italian [1, 23]: 0 | Ryegrass, Italian plant response rating [1, 24]: 0 | Plant response rating, Ragweed [2, 18]: 80 | Plant response rating, Ragweed [2, 19]: 100 | Plant response rating, Ragweed [2, 20]: 90 | Plant response rating, Ragweed [2, 21]: 98 | Plant response rating, Ragweed [2, 22]: 98 | Plant response rating, Ragweed [2, 23]: 75 | Ragweed plant response rating [2, 24]: 95 | Plant response rating, Surinam Grass [3, 18]: 65 | Plant response rating, Surinam Grass [3, 19]: 100 | Plant response rating, Surinam Grass [3, 20]: 75 | Plant response rating, Surinam Grass [3, 21]: 80 | Plant response rating, Surinam Grass [3, 22]: 85 | Plant response rating, Surinam Grass [3, 23]: 75 | Surinam Grass plant response rating [3, 24]: 98 | Plant response rating, Foxtail, Green [4, 18]: 80 | Plant response rating, Foxtail, Green [4, 19]: 100 | Plant response rating, Foxtail, Green [4, 20]: 80 | Plant response rating, Foxtail, Green [4, 21]: 95 | Plant response rating, Foxtail, Green [4, 22]: 95 | Plant response rating, Foxtail, Green [4, 23]: 50 | Plant response rating, Foxtail, Green [4, 25]: 50 | Foxtail, Green plant response rating [4, 24]: 95 | Plant response rating, Nutsedge, Yellow [5, 18]: 70 | Plant response rating, Nutsedge, Yellow [5, 19]: 90 | Plant response rating, Nutsedge, Yellow [5, 20]: 70 | Plant response rating, Nutsedge, Yellow [5, 21]: 70 | Plant response rating, Nutsedge, Yellow [5, 22]: 75 | Plant response rating, Nutsedge, Yellow [5, 23]: 80 | Nutsedge, Yellow plant response rating [5, 24]: 90 | Plant response rating, Crabgrass, Large [6, 18]: 75 | Plant response rating, Crabgrass, Large [6, 19]: 100 | Plant response rating, Crabgrass, Large [6, 20]: 85 | Plant response rating, Crabgrass, Large [6, 21]: 95 | Plant response rating, Crabgrass, Large [6, 22]: 98 | Plant response rating, Crabgrass, Large [6, 23]: 98 | Plant response rating, Crabgrass, Large [6, 25]: 100 | Crabgrass, Large plant response rating [6, 24]: 100 | Plant response rating, Blackgrass [7, 18]: 5 | Plant response rating, Blackgrass [7, 19]: 5 | Plant response rating, Blackgrass [7, 20]: 5 | Plant response rating, Blackgrass [7, 21]: 5 | Plant response rating, Blackgrass [7, 22]: 15 | Plant response rating, Blackgrass [7, 23]: 0 | Plant response rating, Blackgrass [7, 25]: 0 | Blackgrass plant response rating [7, 24]: 0 | Plant response rating, Velvetleaf [8, 18]: 90 | Plant response rating, Velvetleaf [8, 19]: 100 | Plant response rating, Velvetleaf [8, 20]: 98 | Plant response rating, Velvetleaf [8, 21]: 98 | Plant response rating, Velvetleaf [8, 22]: 100 | Plant response rating, Velvetleaf [8, 23]: 85 | Velvetleaf plant response rating [8, 24]: 100 | Plant response rating, Goosegrass [9, 18]: 75 | Plant response rating, Goosegrass [9, 19]: 100 | Plant response rating, Goosegrass [9, 20]: 80 | Plant response rating, Goosegrass [9, 21]: 90 | Plant response rating, Goosegrass [9, 22]: 90 | Plant response rating, Goosegrass [9, 23]: 95 | Goosegrass plant response rating [9, 24]: 100 | Plant response rating, Cupgrass, Woolly [10, 18]: 70 | Plant response rating, Cupgrass, Woolly [10, 19]: 70 | Plant response rating, Cupgrass, Woolly [10, 20]: 75 | Plant response rating, Cupgrass, Woolly [10, 21]: 80 | Plant response rating, Cupgrass, Woolly [10, 22]: 85 | Plant response rating, Cupgrass, Woolly [10, 23]: 0 | Plant response rating, Cupgrass, Woolly [10, 25]: 5 | Cupgrass, Woolly plant response rating [10, 24]: 15 | Plant response rating, Foxtail, Giant [11, 18]: 75 | Plant response rating, Foxtail, Giant [11, 19]: 90 | Plant response rating, Foxtail, Giant [11, 20]: 85 | Plant response rating, Foxtail, Giant [11, 21]: 95 | Plant response rating, Foxtail, Giant [11, 22]: 95 | Plant response rating, Foxtail, Giant [11, 23]: 45 | Plant response rating, Foxtail, Giant [11, 25]: 75 | Foxtail, Giant plant response rating [11, 24]: 90 | Plant response rating, Lambsquarters [12, 18]: 98 | Plant response rating, Lambsquarters [12, 19]: 100 | Plant response rating, Lambsquarters [12, 20]: 98 | Plant response rating, Lambsquarters [12, 21]: 100 | Plant response rating, Lambsquarters [12, 22]: 100 | Plant response rating, Lambsquarters [12, 23]: 100 | Plant response rating, Lambsquarters [12, 25]: 100 | Lambsquarters plant response rating [12, 24]: 100 | Plant response rating, Bromegrass, Downy [13, 18]: 0 | Plant response rating, Bromegrass, Downy [13, 19]: 0 | Plant response rating, Bromegrass, Downy [13, 20]: 5 | Plant response rating, Bromegrass, Downy [13, 21]: 20 | Plant response rating, Bromegrass, Downy [13, 22]: 20 | Plant response rating, Bromegrass, Downy [13, 23]: 0 | Plant response rating, Bromegrass, Downy [13, 25]: 0 | Bromegrass, Downy plant response rating [13, 24]: 0 | Plant response rating, Johnsongrass [14, 18]: 0 | Plant response rating, Johnsongrass [14, 19]: 95 | Plant response rating, Johnsongrass [14, 20]: 10 | Plant response rating, Johnsongrass [14, 21]: 65 | Plant response rating, Johnsongrass [14, 22]: 70 | Plant response rating, Johnsongrass [14, 23]: 0 | Plant response rating, Johnsongrass [14, 25]: 20 | Johnsongrass plant response rating [14, 24]: 90 | Plant response rating, Kochia [15, 18]: 95 | Plant response rating, Kochia [15, 20]: 100 | Plant response rating, Kochia [15, 21]: 100 | Plant response rating, Kochia [15, 22]: 100 | Plant response rating, Corn [16, 18]: 5 | Plant response rating, Corn [16, 19]: 0 | Plant response rating, Corn [16, 20]: 10 | Plant response rating, Corn [16, 21]: 25 | Plant response rating, Corn [16, 22]: 25 | Plant response rating, Corn [16, 23]: 0 | Plant response rating, Corn [16, 25]: 0 | Corn plant response rating [16, 24]: 0 | Plant response rating, Bermudagrass [17, 18]: 90 | Plant response rating, Bermudagrass [17, 19]: 100 | Plant response rating, Bermudagrass [17, 20]: 100 | Plant response rating, Bermudagrass [17, 21]: 100 | Plant response rating, Bermudagrass [17, 22]: 100 | Plant response rating, Bermudagrass [17, 23]: 100 | Plant response rating, Bermudagrass [17, 25]: 100 | Bermudagrass plant response rating [17, 24]: 100
